In patent US9682940B2, “Indazole derivatives useful as CB-1 inverse agonists” (Janssen Pharmaceutica NV, priority 2015, dated 2017) one finds EC50 data, which are given here for 31 molecules.

Experiment [1] concerns the target Human CB1R (Cannabanoid receptor 1) (Homo sapiens (Human), UniProt P21554). Briefly: CB-1 in vitro cAMP (HTRF) assay in HEK-293 cells. The experiment is classed as cell-based. The conditions noted are these: HEK-293 cells stably transfected with human CB1R, 250 nM Forskolin, mean where tested more than once, read-out: CB-1 (HEK_cAMP) EC50. The source says: (§1) CB1 and CB2 receptors are Gi-coupled GPCR. Activation of CB1 and CB2 receptors results in a decrease in cAMP production. An inverse agonist of the CB1 or CB2 receptor results in the opposite effect, an increase of cAMP production. The principle of this assay is based on HTRF® technology (Homogeneous Time-Resolved Fluorescence). The method is a competitive immunoassay between native cAMP produced by cells and the cAMP labeled with the fluorophore d2. The tracer binding is quantified by a Mab anti-cAMP labeled with Eu3+TBP-NHS Cryptate (supplied as part of the assay kit). The specific signal (i.e. energy transfer) is inversely proportional to the concentration of cAMP in the standard or sample.
(§2) Human CB1R (Cannabanoid receptor 1) was stably transfected in HEK-293 cells (DiscoveRx, cat: 93-0200C1). Human CB2R (Cannabanoid receptor 2) was stably transfected in HEK-293 cells (DiscoveRx, cat: 93-0201C1). Cell cultures were maintained in media: DMEM (Invitrogen Cat#12430-054) supplemented with 10% HI FBS (Invitrogen Cat#16140-071), 1% L-glutamine (Invitrogen Cat#25030-081), 0.2 mg/ml Hygromycin B (Invitrogen Cat#10687-010), 600 μg/mL G418 (Invitrogen Cat#10131-035), and 1× Penn/Strep (Invitrogen 15140-122). After cell expansion, aliquots were cryo-stored in media containing 5% DMSO (Pierce Cat#20684).
(§3) One day prior to experiments media was warmed to 37° C. and the cryo-stored cells were thawed in a 37° C. water bath. The cells were then added to media (10× volume) and the mixture was centrifugated at 1000 RPM for 5 min. The supernate was removed and the cells were re-suspended in media. A sample of the cell suspension was evaluated on a Cedex XS automated cell counter (Innovatis Systems) to determine viable cells/ml. Additional media was added to the cells to achieve a final cell density of 4E5 cells/mL. The cells were then plated into 384 well PDL white solid bottom plates (Greiner, Cat#781945) at 20 μL per well using a Multidrop (Thermo Scientific). Cells were removed from Row P (location of cAMP standards). Two columns of cells were plated into a clear bottom 384 well PDL coated plate (Greiner, Cat#781944) to view confluence the day of the assay. The cell plates were lidded and stored for 15 minutes in a hood, then transferred to an incubator (37° C., 5% CO2, 95% humidity) overnight.
(§4) DMSO was added to all wells of 384 well V bottom polystyrene plate (Greiner, Cat#781280) except to columns 1 and 13, rows O and P and wells M13-M23 and N13-N23. Test compounds (60 μL, 10 mM) were added to Column 1 and 13 (A1 through N1 and A13 through L13). Test compounds were serially diluted 1/3 by transferring and mixing 20 μl sample with 40 μL DMSO.
(§5) DMSO (40 μL) was added to wells of 384 well V bottom polystyrene plate: O2 through O11, M14 through M23, N14 through N23, and O14 through 023. AM630 (also known as [6-iodo-2-methyl-1-[2-(4-morpholinyl)ethyl]-1H-indol-3-yl](4-methoxyphenyl)-methanone, Cayman Chemical, Cat#10006974) (60 μL, 10 mM) was added to 01; and 1-(2,4-dichlorophenyl)-7-[(4-fluorophenyl)methylene]-4,5,6,7-tetrahydro-N-1-piperidinyl-1H-indazole-3-carboxamide (60 μL, 10 mM) was added to N13. The control was serially diluted 1/3 by transferring and mixing 20 μl sample with 40 μL DMSO. This process resulted 11 doses per control, 10 mM to […].
(§6) Cells plated the day prior to the assay in clear bottom plates were viewed on an inverse microscope to ensure confluency in the range of 60-75%. […]

Experiment [2] deals with Human CB2R (Cannabanoid receptor 2) (Homo sapiens (Human), UniProt P34972). Briefly: CB-2 in vitro cAMP (HTRF) assay in HEK-293 cells. The experiment is classed as cell-based. The conditions noted are these: HEK-293 cells stably transfected with human CB2R, 250 nM Forskolin, mean where tested more than once, read-out: CB-2 (HEK_cAMP) EC50.
Sequence of Human CB2R (Cannabanoid receptor 2) (P34972 whole entry): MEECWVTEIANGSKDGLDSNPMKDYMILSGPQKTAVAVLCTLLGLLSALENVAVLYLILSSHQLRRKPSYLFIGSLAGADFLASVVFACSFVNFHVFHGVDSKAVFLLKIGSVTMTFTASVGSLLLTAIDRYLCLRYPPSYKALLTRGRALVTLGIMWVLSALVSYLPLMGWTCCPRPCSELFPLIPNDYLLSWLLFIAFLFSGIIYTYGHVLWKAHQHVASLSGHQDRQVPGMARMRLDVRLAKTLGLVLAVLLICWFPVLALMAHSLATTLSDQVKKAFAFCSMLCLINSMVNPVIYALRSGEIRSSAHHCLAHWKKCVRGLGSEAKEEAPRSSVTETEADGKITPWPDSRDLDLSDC
From the text: as §1, §2, §3, §4, §5, §6

Sequence of Human CB1R (Cannabanoid receptor 1) (P21554 whole entry): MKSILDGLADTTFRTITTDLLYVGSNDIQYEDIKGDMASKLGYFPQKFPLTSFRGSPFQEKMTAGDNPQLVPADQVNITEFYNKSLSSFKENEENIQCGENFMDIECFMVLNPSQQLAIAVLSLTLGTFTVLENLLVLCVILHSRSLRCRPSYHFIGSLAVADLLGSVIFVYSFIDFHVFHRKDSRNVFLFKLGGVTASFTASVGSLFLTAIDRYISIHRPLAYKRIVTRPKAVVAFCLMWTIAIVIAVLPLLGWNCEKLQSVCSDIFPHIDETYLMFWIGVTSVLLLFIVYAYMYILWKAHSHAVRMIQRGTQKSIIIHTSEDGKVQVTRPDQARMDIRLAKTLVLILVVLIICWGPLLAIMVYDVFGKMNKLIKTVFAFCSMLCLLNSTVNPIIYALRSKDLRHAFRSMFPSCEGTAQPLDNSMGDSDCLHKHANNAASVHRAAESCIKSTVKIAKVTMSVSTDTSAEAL

For `O=C(O)c1cccc(S(=O)(=O)N2CCC(Nc3n[nH]c4ccc(C(c5ccc(Cl)cc5)c5ccc(Cl)cc5)cc34)CC2)c1` [Compound 128], the EC50 in experiment [1] is 1.23 µM; in experiment [2], greater than 10 µM.

With `O=C(CC(F)(F)F)N1CCC(c2n[nH]c3ccc(C(c4ccc(Cl)cc4)c4ccc(Cl)cc4)cc23)CC1` [Compound 56], the EC50 is 0.072 µM in experiment [1] and greater than 10 µM in experiment [2].

With `O=C(O)CCC(=O)N1CCC(c2c3cc(C(c4ccc(Cl)cc4)c4ccc(Cl)cc4)ccc3nn2C2CC2)CC1` [Compound 135], the EC50 in experiment [1] is 0.166 µM; in experiment [2] it was greater than 10 µM.

As for `O=S(=O)(CC(F)(F)F)N1CCC(c2n[nH]c3ccc(C(c4ccc(Cl)cc4)c4ccc(Cl)cc4)cc23)CC1` [Compound 53], the values for the EC50 in experiment [1] and in experiment [2] were 0.049 µM and greater than 10 µM, respectively.

In the case of `O=C(OCc1ccccc1)N1CCC(c2n[nH]c3ccc(C(c4ccc(Cl)cc4)c4ccc(Cl)cc4)cc23)CC1` [Compound 265], the EC50 is 0.208 µM in experiment [1] and greater than 10 µM in experiment [2].

`NC(=O)CC(=O)N1CCC(c2nn(C3CC3)c3ccc(C(c4ccc(Cl)cc4)c4ccc(Cl)cc4)cc23)CC1` [Compound 90]: the EC50 is 0.716 µM in experiment [1] and 3.1 µM in experiment [2].

Consider `Cc1ccc(C(c2ccc(C)cc2)c2ccc3c(c2)c(C2CCN(Cc4cccc(C(=O)O)c4)CC2)nn3C2CC2)cc1` [Compound 244], for which the figures for the EC50 in experiment [1] and in experiment [2] were 0.048 µM and greater than 10 µM, respectively.

As to `NC(=O)c1cc(S(=O)(=O)N2CCC(c3c4cc(C(c5ccc(Cl)cc5)c5ccc(Cl)cc5)ccc4nn3C3CC3)CC2)ccc1F` [Compound 163, 5-(4-(5-(bis(4-chlorophenyl)methyl)-2-cyclopropyl-2H-indazol-3-yl)piperidin-1-ylsulfonyl)-2-fluorobenzamide], the EC50 in experiment [1] is 0.012 µM; in experiment [2] it was greater than 10 µM.

In the case of `O=C(O)c1ccc(S(=O)(=O)N2CCC(Nc3n[nH]c4ccc(C(c5ccc(Cl)cc5)c5ccc(Cl)cc5)cc34)CC2)cc1` [Compound 129], the EC50 was 0.203 µM in experiment [1] and greater than 10 µM in experiment [2].

Turning to `O=C(O)c1cc(S(=O)(=O)N2CCC(c3c4cc(C(c5ccc(Cl)cc5)c5ccc(Cl)cc5)ccc4nn3C3CC3)CC2)ccc1F` [Compound 162, 5-(4-(5-(bis(4-chlorophenyl)methyl)-2-cyclopropyl-2H-indazol-3-yl)piperidin-1-ylsulfonyl)-2-fluorobenzoic acid], the EC50 in experiment [1] was 0.004 µM; in experiment [2], 5.2 µM.

Take `NC(=O)c1ccccc1C(=O)N1CCC(c2c3cc(C(c4ccc(Cl)cc4)c4ccc(Cl)cc4)ccc3nn2C2CC2)CC1` [Compound 141]: the figures for the EC50 in experiment [1] and in experiment [2] were 6.12 µM and greater than 10 µM, respectively.

On to `NC(=O)c1ccc(N2CCC(c3n[nH]c4ccc(C(c5ccc(Cl)cc5)c5ccc(Cl)cc5)cc34)CC2)cc1` [Compound 208], for which the EC50 was 0.068 µM in experiment [1] and greater than 10 µM in experiment [2].

For `O=C(O)c1cccc(S(=O)(=O)N2CCC(c3c4cc(C(c5ccc(Cl)cc5)c5ccc(Cl)cc5)ccc4nn3C3CC3)CC2)c1` [Compound 116, 3-(4-(5-(bis(4-chlorophenyl)methyl)-2-cyclopropyl-2H-indazol-3-yl)piperidin-1-ylsulfonyl)benzoic acid], the EC50 in experiment [1] was 0.005 µM; in experiment [2] it was 7.99 µM.

For the molecule `O=C(CO)N1CCC(c2nn(C3CC3)c3ccc(C(c4ccc(Cl)cc4)c4ccc(Cl)cc4)cc23)CC1` [Compound 91], the EC50 in experiment [1] was 0.039 µM; in experiment [2] it was greater than 10 µM.

Regarding `NC(=O)c1ccccc1S(=O)(=O)N1CCC(c2nn(C3CC3)c3ccc(C(c4ccc(Cl)cc4)c4ccc(Cl)cc4)cc23)CC1` [Compound 93], the figures for the EC50 in experiment [1] and in experiment [2] were 0.533 µM and greater than 10 µM, respectively.

Turning to `O=C(O)COCCn1nc(N2CCN(S(=O)(=O)C(F)(F)F)CC2)c2cc(C(c3ccc(Cl)cc3)c3ccc(Cl)cc3)ccc21` [Compound 52], the EC50 was 0.499 µM in experiment [1] and greater than 10 µM in experiment [2].

As for `COc1cccc(S(=O)(=O)N2CCC(c3c4cc(C(c5ccc(Cl)cc5)c5ccc(Cl)cc5)ccc4nn3C3CC3)CC2)c1` [Compound 150, 5-(bis(4-chlorophenyl)methyl)-2-cyclopropyl-3-(1-(3-methoxyphenylsulfonyl)piperidin-4-yl)-2H-indazole], the EC50 in experiment [1] was 0.007 µM; in experiment [2], greater than 10 µM.

For `O=C(O)c1cccc(S(=O)(=O)N2CCC(c3n[nH]c4ccc(C(c5ccc(Cl)cc5)c5ccc(Cl)cc5)cc34)C2)c1` (centres unmarked) [Compound 273], the EC50 is 6.8 µM in experiment [1] and greater than 10 µM in experiment [2].

On to `O=S(=O)(N1CCC(c2nn(-c3nccs3)c3ccc(C(c4ccc(Cl)cc4)c4ccc(Cl)cc4)cc23)CC1)C(F)(F)F` [Compound 37], for which the figures for the EC50 in experiment [1] and in experiment [2] were 0.008 µM and greater than 10 µM, respectively.

On to `O=C(O)c1ccc(CS(=O)(=O)N2CCC(c3nn(C4CC4)c4ccc(C(c5ccc(Cl)cc5)c5ccc(Cl)cc5)cc34)CC2)s1` [Compound 236], for which the results for the EC50 in experiment [1] and in experiment [2] were 0.068 µM and greater than 10 µM, respectively.

As for `NC(=O)c1cccc(S(=O)(=O)N2CCC(c3nn(C4CC4)c4ccc(C(c5ccc(Cl)cc5)c5ccc(Cl)cc5)cc34)CC2)c1` [Compound 94], the EC50 in experiment [1] was 0.065 µM; in experiment [2], greater than 10 µM.

Turning to `O=S(=O)(N1CCC(c2n[nH]c3ccc(C(c4ccc(Cl)cc4)C4CCCC4)cc23)CC1)C(F)(F)F` (centres unmarked) [Compound 279], the figures for the EC50 in experiment [1] and in experiment [2] were 0.785 µM and greater than 42 µM, respectively.

`O=C(O)CC(=O)N1CCC(c2n[nH]c3ccc(C(c4ccc(Cl)cc4)c4ccc(Cl)cc4)cc23)CC1` [Compound 41]: the EC50 is 1.65 µM in experiment [1] and greater than 10 µM in experiment [2].

As to `CC(C)(C)OC(=O)N1CCC(c2nn(CCO)c3ccc(C(c4ccc(Cl)cc4)c4ccc(Cl)cc4)cc23)CC1` [Compound 76], the EC50 in experiment [1] was 0.112 µM; in experiment [2], greater than 10 µM.

Turning to `NC(=O)c1ccc(S(=O)(=O)N2CCC(c3nn(C4CC4)c4ccc(C(c5ccc(Cl)cc5)c5ccc(Cl)cc5)cc34)CC2)cc1` [Compound 95], the EC50 in experiment [1] was 0.063 µM; in experiment [2], 6.5 µM.

Take `NC(=O)c1ccccc1C(=O)N1CCC(c2nn(C3CC3)c3ccc(C(c4ccc(Cl)cc4)c4ccc(Cl)cc4)cc23)CC1` [Compound 96]: the EC50 in experiment [1] is 2.25 µM; in experiment [2] it was greater than 10 µM.

Take `O=C(O)Cc1ccc(N2CCC(c3n[nH]c4ccc(C(c5ccc(Cl)cc5)c5ccc(Cl)cc5)cc34)CC2)cc1` [Compound 215]: the EC50 was 2.96 µM in experiment [1] and greater than 10 µM in experiment [2].

Consider `CC(=O)n1nc(N2CCN(S(=O)(=O)C(F)(F)F)CC2)c2cc(C(c3ccc(Cl)cc3)c3ccc(Cl)cc3)ccc21` [Compound 44], for which the figures for the EC50 in experiment [1] and in experiment [2] were 0.014 µM and greater than 10 µM, respectively.

Consider `O=C(O)CCS(=O)(=O)N1CCC(c2nn(C3CC3)c3ccc(C(c4ccc(Cl)cc4)c4ccc(Cl)cc4)cc23)CC1` [Compound 106], for which the EC50 in experiment [1] was 9.2 µM; in experiment [2], greater than 10 µM.

As for `O=C(O)COc1cccc(N2CCC(c3n[nH]c4ccc(C(c5ccc(Cl)cc5)c5ccc(Cl)cc5)cc34)CC2)c1` [Compound 216], the EC50 in experiment [1] is 1.28 µM; in experiment [2], greater than 10 µM.

For the molecule `O=S(=O)(N1CCN(c2n[nH]c3ccc(C(c4ccc(Cl)cc4)c4ccc(Cl)cc4)cc23)CC1)C(F)(F)F` [Compound 26], the EC50 is 0.005 µM in experiment [1] and greater than 10 µM in experiment [2].
